We go through five compounds from patent publication US20260027068A1, “METHODS OF ADM[…]-KETAMINE” (Perception Neuroscience, Inc., priority 2022, published 2026).

Data set [1] is described as follows: Phase 1 single ascending dose plasma pharmacokinetics of 40-minute IV infusion of R(−)-ketamine and its metabolites. As to conditions: for Tmax: all dose levels 5 mg to 150 mg; for AUC(0-inf) / Cmax / AUC(0-t): iv.
Method: This was a Phase 1 randomized, placebo-controlled, double-blind, single dose study conducted at one center. […] The pharmacokinetic (PK) population was 36 subjects, with 12 additional subjects receiving placebo. […] Subjects were male or female healthy subjects, 18 to 65 years of age. […] Cohort 1 was dosed at 5 mg, followed by Cohort 2 at 15 mg, Cohort 3 at 30 mg, Cohort 4 at 60 mg, Cohort 5 at 100 mg, and Cohort 6 at 150 mg R(−)-ketamine. […] In addition to the safety and tolerability data, the study also evaluated the dose-related PK of each 40-minute IV infusion of R(−)-ketamine.
To evaluate the pharmacokinetics of R(−)-ketamine, blood was drawn from subjects for PK analysis at the following sampling times: pre-dose (−30 minutes); and from the start of infusion (5, 10, and 15 minutes [±1 minute], 30 minutes [±5 minutes], 40 minutes [immediately prior to infusion completion], 1, 1.5, 2, and 3 hours [±5 minutes], 4 and 8 hours [±10 minutes], 12 and 24 hours [±15 minutes]).
Plasma PK parameters of R(−)-ketamine and its metabolites (norketamine, 6-hydroxynorketamine, and dehydronorketamine) evaluated on include the following: • Maximum plasma concentration (Cmax), • Time to Cmax (Tmax), • Area under the plasma concentration curve (AUC0-t, AUC0-∞) • Elimination rate constant (λz), • Half-live (t½) • Clearance (CL, P R(−)-ketamine only), • Volume of distribution (Vz, R(−)-ketamine only), and • Metabolite to parent ratios (area under curve [AUC] and Cmax).
The dose proportionality was assessed both visually and statistically using calculated Cmax and AUC values. […] Continuous variables: Descriptive statistics included the number of non-missing values (n), arithmetic mean, standard deviation (SD), median, minimum, and maximum values. […] For PK concentration data, the number of non-missing values, number of below limit of quantification (BLQ) values, arithmetic mean, SD, median, minimum, maximum, coefficient of variation (CV %), geometric mean, and geometric CV (geo CV %) values are presented. For PK parameter data, the number of non-missing values, arithmetic mean, SD, median, minimum, maximum, CV %, geometric mean, and geometric CV (geo CV %) values are presented.
Intravenous administration of allocated blinded study drug (Morning, Day 1) was infused over 40 minutes. Blood collection for plasma PK analysis occurred at infusion 5, 10, 15, 30, 40, 60, and 90 minutes, and 2, 3, 4, 8, and 12 hours after the start of infusion.
Plasma concentrations of R(−)-ketamine and its metabolites norketamine, 6-hydroxynorketamine, and dehydronorketamine were determined using a suitable validated analytical method with a lower limit of quantitation (LOQ) of 1 ng/mL.
The linearity of the increase in exposure with respect to the increasing dose administered was evaluated for Cmax and AUC for R(−)-ketamine and its metabolites (norketamine, 6-hydroxynorketamine and dehydronorketamine). […] The power model was used to estimate the slope parameter and the 90% confidence intervals for the slope.
The subject of another data set is rats. Briefly: Anhedonic or negative affective side effects.
Data set [2] has as its system phencyclidine site of the N-methyl-D-aspartate (NMDA) receptor. As to conditions: phencyclidine site; cited from earlier work.
For data set [3] the following is noted: in vivo; cited from earlier work.
The subject of another data set is TRD patients. The note with it: 15 mg; cited from earlier work.
The mark [4] stands for this setting: 5 mg R(−)-ketamine IV over 40 minutes, plasma.
Setting [5] is: 150 mg R(−)-ketamine IV over 40 minutes, plasma.

Each structure is given as a SMILES string.

For the compound `NC1(c2ccccc2Cl)CCCC(O)C1=O` (stereo not shown) [6-hydroxynorketamine], in data set [1] (5 mg R(−)-ketamine IV), the “Arithmetic mean AUC0-24h” value came to 110 ng·h/mL and the “Arithmetic mean AUC0-t” value was determined as 110 ng·h/mL. Also, in data set [1] (setting [4]), the “Arithmetic mean Cmax” value turned out to be 5.98 ng/mL. Moreover, in data set [1] (150 mg R(−)-ketamine IV), the “Arithmetic mean AUC0-24h” value is 3000 ng·h/mL and the “Arithmetic mean AUC0-t” value came out at 3000 ng·h/mL. In data set [1] (setting [5]), the “Arithmetic mean Cmax” value came to 165 ng/mL. For the same compound, in data set [1] (across 5 mg to 150 mg cohorts), the “Metabolite/R(−)-ketamine ratio based on AUC0-24h, arithmetic mean” value came out at 2.22 and the “Metabolite/R(−)-ketamine ratio based on AUC0-t, arithmetic mean” value was 2.22.

On to `N[C@@]1(c2ccccc2Cl)CCC[C@@H](O)C1=O` [R-hydroxynorketamine], for which the “Anhedonic or negative affective side effects” value with rats is “no anhedonic or negative affective side effects”.

With `CN[C@]1(c2ccccc2Cl)CCCCC1=O` [S(+)-ketamine, reference compound], the “Binding affinity relative to R(−)-ketamine” value in data set [2] was “approximately 4 times”. For the same compound, in data set [3], the “Side effects (hyperlocomotion, prepulse inhibition deficit, drug dependence)” value is “induced side effects such as a hyperlocomotion, prepulse inhibition deficit, and drug dependence”. The Antidepressant effect entry with TRD patients was “robust antidepressant effect”.

As to `NC1(c2ccccc2Cl)CCC=CC1=O` (stereo not shown) [dehydronorketamine], the “Arithmetic mean AUC0-24h” value in data set [1] (5 mg R(−)-ketamine IV) worked out at 2.5 ng·h/mL; in data set [1] (150 mg R(−)-ketamine IV), 424 ng·h/mL. Further, the “Arithmetic mean AUC0-t” value was 1.37 ng·h/mL in data set [1] (5 mg R(−)-ketamine IV) and 424 ng·h/mL in data set [1] (150 mg R(−)-ketamine IV). Moreover, the “Arithmetic mean Cmax” value in data set [1] (setting [4]) was 0.198 ng/mL; in data set [1] (setting [5]), 35.6 ng/mL. Besides, the “Arithmetic mean AUC0-inf” value in data set [1] (15 mg R(−)-ketamine IV) was determined as 16.3 ng·h/mL; in data set [1] (150 mg R(−)-ketamine IV), 576 ng·h/mL. The “Fold increase in AUC0-inf” value in data set [1] (15 mg to 150 mg (10-fold increase in dose)) was 35.3 fold. Also, the “Stability in the samples” value in data set [1] (PK samples) is on record as “not stable in the samples”.

With `NC1(c2ccccc2Cl)CCCCC1=O` (stereo not shown) [norketamine], the “Metabolite/R(−)-ketamine ratio based on Cmax, arithmetic mean” value in data set [1] (across 5 mg to 150 mg cohorts) was determined as 0.448. Besides, in data set [1] (both, human, plasma, intravenous), the half-life lay in the range of 6.7 to 8.05 h. Also, the Tmax in data set [1] (both, human, plasma, intravenous, Approximate median plasma Tmax) is roughly 1 h; in data set [1] (both, human, plasma, intravenous, Plasma Tmax range (mixed units as printed)), 0.667 to 2 h. The AUC(0-inf) in data set [1] (both, human, plasma, 5 mg) amounted to 79.1 ng·h/mL; in data set [1] (both, human, plasma, 150 mg), 3530 ng·h/mL. In addition, the Cmax in data set [1] (both, human, plasma, 5 mg) stood at 11.4 ng/mL; in data set [1] (both, human, plasma, 150 mg) it was 360 ng/mL. The AUC(0-t) in data set [1] (both, human, plasma, 5 mg, Arithmetic mean AUC0-24h, 5 mg R(−)-ketamine IV) was 79.6 ng·h/mL; in data set [1] (both, human, plasma, 5 mg, Arithmetic mean AUC0-t, 5 mg R(−)-ketamine IV) it was 78 ng·h/mL; in data set [1] (both, human, plasma, 150 mg, Arithmetic mean AUC0-24h, 150 mg R(−)-ketamine IV), 3140 ng·h/mL; in data set [1] (both, human, plasma, 150 mg, Arithmetic mean AUC0-t, 150 mg R(−)-ketamine IV) it was 3140 ng·h/mL.

By half-life is commonly meant how long it takes for the measured level to halve. In general, Tmax refers to the time from dosing to the highest level. The AUC(0-inf) is the area under the concentration-time curve extrapolated to infinity. The Cmax is the highest concentration seen after dosing. The AUC(0-t) is the area under the concentration-time curve up to a stated or last time point.
